Measured values as given in article PMC10547880, “Synthesis and biological evaluation of novel 1,2,3-triazole hybrids of cabotegravir: identification of potent antitumor activity against lung cancer” (Frontiers in Pharmacology, 2023).

How the values were obtained:
Assay type in all cases: cell-based, Human
LO2 cells = experiment: CCK8 cell viability, normal cell line LO2; conditions: LO2 normal liver cells, 25 μM, 72 h
Method: (§1) Human lung cancer cell line H460 and H1299, human liver normal cell line LO2 were bought from ATCC. DMEM or RPMI 1640 was used as the cell culture medium with 10% FBS and 1% penicillin/streptomycin. Cells were maintained in an incubator with 37°C humidified atmosphere and 5% CO2.
(§2) Cell viability and IC50 values were determined using the CCK8 assay kit. Cells were seeded at a density of 5 × 10^3 cells per well in a 96-well plate. After overnight adhesion, 25 μM of compounds or vehicle control DMSO which all dissolved in the culture medium were added to cells and cultured for 48 h or 72 h. CCK8 reagent, dissolved in the medium, was then added to cells and incubated for 1 h. The absorbance at 450 nm was measured using a microplate spectrophotometer (Thermo). Cell viability was calculated, with the untreated group taken as 100%. For IC50 values determination, different concentrations (0, 0.4 μM, 2 μM, 10 μM, 20 μM, 50 μM) of compounds were added to cells for 72 h. Subsequent CCK8 measurement allowed the calculation of inhibition percentage based on cell viability. The IC50 values were computed by the prism statistical software. The CCK-8 assay was conducted three times and the repetitions in each time were at least three. All the values were expressed as Mean ± SD, p < 0.05 was considered statistically significant.
(§3) In order to assess the potential cytotoxicity of the synthesized compounds, we selected two types of human non-small-cell lung cancer cell line, H460 and H1299. Cell viability and cytotoxicity were evaluated using the CCK8 assay ([Xu et al., 2018]). The cells were treated with 25 μM of compounds 5a-5s and 6a-6i for 48h and 72 h. […] In contrast, no compounds managed to reduce H1299 cell viability to less than 50%, yet compounds 5i, 5m, 6h and 6i achieved cell viability rates below 70%. […] It is worth noting that minimal effects on the cell viability of the normal cell line LO2 were observed when exposed to these compounds. Further, we determined the half-maximal inhibitory concentration (IC50) of selected compounds against H460 cells, the results of which were summarized in Table 3.

H1299 cells = experiment: CCK8 cell viability, H1299; conditions: H1299, 25 μM
Method: as §1, §2, §3

H460 cells = experiment: CCK8 cell viability and IC50 measurement, H460; conditions: for Cell viability: H460, 25 μM; for IC50: H460, 72 h, CCK8; for cell proliferation inhibition rate: H460, 72-h treatment
Method: as §1, §2, §3

Structure (SMILES)	IC50 (H460 cells)	Cell viability (LO2 cells)	Cell viability (H1299 cells; 48 h)	Cell viability (H1299 cells; 72 h)	Cell viability (H460 cells; 48 h)	Cell viability (H460 cells; 72 h)	cell proliferation inhibition rate (H460 cells)
COc1c2n(cc(C(=O)Nc3cccc(-c4cn(-c5cccc(F)c5)nn4)c3)c1=O)CC1OCC(C)N1C2=O (stereo not drawn) [Compound 5f]	–	130.35%	114.19%	100.41%	93.31%	100.16%	–
COc1ccccc1-n1cc(-c2cccc(NC(=O)c3cn4c(c(OC)c3=O)C(=O)N3C(C)COC3C4)c2)nn1 (stereo not drawn) [Compound 5g]	–	128.56%	117.81%	103.45%	82.94%	99.43%	–
COc1c2n(cc(C(=O)Nc3cccc(-c4cn(-c5ccc(C(F)(F)F)cc5)nn4)c3)c1=O)CC1OCC(C)N1C2=O (stereo not drawn) [Compound 5j]	–	108.63%	96.98%	92.49%	100.66%	111.72%	–
COc1c2n(cc(C(=O)Nc3cccc(-c4cn(-c5c(C)cc(C)cc5C)nn4)c3)c1=O)CC1OCC(C)N1C2=O (stereo not drawn) [Compound 5l]	–	125.46%	118.92%	91.44%	84.74%	98.25%	–
COc1c2n(cc(C(=O)Nc3cccc(-c4cn(-c5ccc(F)cc5)nn4)c3)c1=O)CC1OCC(C)N1C2=O (stereo not drawn) [Compound 5n]	–	127.86%	115.05%	91.74%	99.22%	105.04%	–
COc1c2n(cc(C(=O)Nc3cccc(-c4cn(-c5ccccc5I)nn4)c3)c1=O)CC1OCC(C)N1C2=O (stereo not drawn) [Compound 5o]	–	100.11%	120.83%	86.67%	101.09%	104.29%	–
COc1c2n(cc(C(=O)Nc3cccc(-c4cn(-c5ccccc5)nn4)c3)c1=O)CC1OCC(C)N1C2=O (stereo not drawn) [Compound 5p]	–	109.72%	114.26%	87.16%	88.36%	104.18%	–
COc1c2n(cc(C(=O)Nc3cccc(-c4cn(-c5cccc(Br)c5)nn4)c3)c1=O)CC1OCC(C)N1C2=O (stereo not drawn) [Compound 5r]	–	127.81%	117.54%	89.82%	99.03%	107.13%	–
COc1c2n(cc(C(=O)Nc3cccc(-c4cn(Cc5ccccc5C)nn4)c3)c1=O)CC1OCC(C)N1C2=O (stereo not drawn) [Compound 6c]	–	103.41%	110.58%	97.63%	105.51%	101.80%	–
COc1c2n(cc(C(=O)Nc3cccc(-c4cn(Cc5ccc(C(F)(F)F)cc5)nn4)c3)c1=O)CC1OCC(C)N1C2=O (stereo not drawn) [Compound 6d]	–	104.58%	113.99%	93.95%	113.95%	105.14%	–
COc1c2n(cc(C(=O)Nc3cccc(-c4cn(Cc5ccc(Cl)cc5)nn4)c3)c1=O)CC1OCC(C)N1C2=O (stereo not drawn) [Compound 6f]	–	130.96%	104.20%	96.47%	91.99%	94.49%	–
COc1cccc(Cn2cc(-c3cccc(NC(=O)c4cn5c(c(OC)c4=O)C(=O)N4C(C)COC4C5)c3)nn2)c1 (stereo not drawn) [Compound 6g]	–	130.54%	91.06%	94.37%	93.36%	95.01%	–
COc1c2n(cc(C(=O)Nc3cccc(-c4cn(Cc5cccc(F)c5)nn4)c3)c1=O)CC1OCC(C)N1C2=O (stereo not drawn) [Compound 6i]	–	127.14%	99.47%	–	97.90%	95.51%	–

More lines, main results first:

IC50 (H460 cells)	Structure (SMILES)	Cell viability (LO2 cells)	Cell viability (H1299 cells; 48 h)	Cell viability (H1299 cells; 72 h)	Cell viability (H460 cells; 48 h)	Cell viability (H460 cells; 72 h)	cell proliferation inhibition rate (H460 cells)
31.8 ± 0.47 µM	COc1c2n(cc(C(=O)Nc3cccc(-c4cn(-c5ccccc5C(F)(F)F)nn4)c3)c1=O)CC1OCC(C)N1C2=O (stereo not drawn) [Compound 5a]	105.28%	121.35%	102.55%	87.78%	65.75%	–
9.65 ± 0.04 µM	COc1c2n(cc(C(=O)Nc3cccc(-c4cn(-c5ccccc5C)nn4)c3)c1=O)CC1OCC(C)N1C2=O (stereo not drawn) [Compound 5c]	73.79%	94.81%	83.51%	–	–	exceed 50%
12.7 ± 4.85 µM	CCc1ccccc1-n1cc(-c2cccc(NC(=O)c3cn4c(c(OC)c3=O)C(=O)N3C(C)COC3C4)c2)nn1 (stereo not drawn) [Compound 5d]	127.81%	117.48%	99.81%	92.17%	–	exceed 50%
> 100 µM	COc1c2n(cc(C(=O)Nc3cccc(-c4cn(-c5cc(C(F)(F)F)cc(C(F)(F)F)c5)nn4)c3)c1=O)CC1OCC(C)N1C2=O (stereo not drawn) [Compound 5e]	129.12%	103.75%	99.34%	101.34%	101.97%	–
> 100 µM	COc1c2n(cc(C(=O)Nc3cccc(-c4cn(-c5cccc(C(F)(F)F)c5)nn4)c3)c1=O)CC1OCC(C)N1C2=O (stereo not drawn) [Compound 5h]	101.34%	114.98%	93.73%	97.75%	75.09%	–
36 ± 2.73 µM	COc1c2n(cc(C(=O)Nc3cccc(-c4cn(-c5cc(C(F)(F)F)ccc5C(F)(F)F)nn4)c3)c1=O)CC1OCC(C)N1C2=O (stereo not drawn) [Compound 5k]	124.51%	113.47%	91.70%	94.55%	52.15%	–
> 50 µM	COc1c2n(cc(C(=O)Nc3cccc(-c4cn(-c5ccccc5Br)nn4)c3)c1=O)CC1OCC(C)N1C2=O (stereo not drawn) [Compound 5m]	111.3%	112.42%	–	96.50%	94.59%	–
> 100 µM	COc1c2n(cc(C(=O)Nc3cccc(-c4cn(-c5cccc(Cl)c5)nn4)c3)c1=O)CC1OCC(C)N1C2=O (stereo not drawn) [Compound 5q]	125.35%	107.23%	88.40%	99.40%	104.14%	–
13.4 ± 4.54 µM	COc1c2n(cc(C(=O)Nc3cccc(-c4cn(-c5ccccc5Cl)nn4)c3)c1=O)CC1OCC(C)N1C2=O (stereo not drawn) [Compound 5s]	122.75%	127.14%	97.37%	71.73%	–	exceed 50%
> 50 µM	COc1c2n(cc(C(=O)Nc3cccc(-c4cn(Cc5ccccc5)nn4)c3)c1=O)CC1OCC(C)N1C2=O (stereo not drawn) [Compound 6a]	127.44%	118.73%	101.39%	99.81%	118.33%	–
30.5 ± 2.18 µM	COc1c2n(cc(C(=O)Nc3cccc(-c4cn(Cc5ccccc5Br)nn4)c3)c1=O)CC1OCC(C)N1C2=O (stereo not drawn) [Compound 6b]	126.52%	104.60%	101.92%	51.88%	–	exceed 50%
22.88 ± 0.13 µM	COc1c2n(cc(C(=O)Nc3cccc(-c4cn(Cc5ccccc5C(F)(F)F)nn4)c3)c1=O)CC1OCC(C)N1C2=O (stereo not drawn) [Compound 6e]	127.55%	127.00%	92.15%	77.85%	60.74%	–
15.86 ± 0.09 µM	COc1c2n(cc(C(=O)Nc3cccc(-c4cn(Cc5ccccc5Cl)nn4)c3)c1=O)CC1OCC(C)N1C2=O (stereo not drawn) [Compound 6h]	88.86%	126.87%	–	–	–	exceed 50%
